Data as given in patent US20250319053A1, “INHIBITORS OF THE PEPTIDYL-PROLYL CIS/TRANS ISOMERASE (PIN1), COMBINATIONS AND USES THEREOF” (DANA-FARBER CANCER INSTITUTE, INC., priority 2021, published 2025).

Columns and labels:
[1] = tested on: human PDAC cells (PDAC1 and PDAC2); experiment: Cell proliferation assay (CellTiter-Glo) in PDAC cells; type: cell-based; details: PDAC cells, 72 hrs
Protocol: Cells were seeded at a density of 5000 cells (PDAC1 and PDAC2), or 3000 cells (CAF1 and CAF2) per well in 96-well flat-bottomed plates and incubated for 24 h in culture medium. […] Control cells received dimethyl sulfoxide (DMSO) at a concentration equal to that of drug-treated cells for 72 hours. The cell viability was determined by CellTiter-Glo® 2.0 Assay (Promega) following the manufacturer's instructions.

[2] = in humans; cited from earlier work
Pin1 = Pin1 (Homo sapiens, UniProt Q13526); experiment: Immunoblotting for Pin1 and substrate oncoproteins in PDAC cells; type: cell-based; set-up: endogenous in cells; host or cells: primary human patient-derived PDAC cells (PDAC1, PDAC2); details: 72 hrs
Pin1, sequence (Q13526 whole entry): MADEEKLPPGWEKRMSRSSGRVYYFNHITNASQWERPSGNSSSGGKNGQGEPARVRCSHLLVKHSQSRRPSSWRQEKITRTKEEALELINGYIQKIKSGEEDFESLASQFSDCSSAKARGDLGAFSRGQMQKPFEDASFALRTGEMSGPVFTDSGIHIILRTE
Protocol: Cultured cells were lysed in RIPA buffer (50 mM Tris-HCl, pH 7.2, 150 mM NaCl, 1% NP40, 0.1% sodium dodecyl sulfate (SDS), 0.25% Na-deoxycholate) with freshly added phosphatase inhibitors containing 5 mM NaF and 0.2 mM sodium orthovanadate (NA3VO4), and proteinase inhibitors containing 2 μg/mL Aprotinin, 2 μg/mL Leupeptin, 2 μg/mL Pepstatin A, 1 mM DTT (dithiothreitol), 0.5 mM 4-(2-aminoethyl)-benzenesulfonyl fluoride (AEBSF), and 20 mM Chymotrypsin, and then mixed with the SDS sample buffer and loaded onto a gel after boiling for 10 minutes at 95° C. The proteins were resolved by polyacrylamide gel electrophoresis and transferred to PVDF membrane. The transferred membrane was washed three times with Tris-buffered saline containing 0.1% Tween 20 (TBST). After blocking with TBST containing 5% milk or 3% bovine serum albumin (BSA) for 1 h room temperature, the membrane was incubated with the appropriate primary antibody (diluted 1:500-1:10000) in 5% milk or 3% BSA-containing TBST at 4° C. overnight. After incubation with the primary antibody, the membrane was washed three times with TBST for a total of 30 min followed by incubation with horseradish peroxidase conjugated goat anti-rabbit or anti-mouse IgG (diluted 1:5000) for 1 h at room temperature. After three extensive washes with TBST for a total of 30 min, the immunoblots were visualized by enhanced chemi-luminescence. Immunoblotting results were quantified using ImageJ (NIH).

CC1=C(/C=C/C(C)=C/C=C/C(C)=C/C(=O)O)C(C)(C)CCC1 [ATRA, all-trans retinoic acid]
cell growth (proliferation assay) [1]: dose-dependently suppress cell growth | half-life [2]: ~45 min | Pin1 and its substrate oncoproteins (IB) (Pin1): ablate Pin1

arsenic trioxide [ATO, reference compound]
cell growth (proliferation assay) [1]: dose-dependently suppress cell growth | Pin1 and its substrate oncoproteins (IB) (Pin1): ablate Pin1
